Assay results taken from patent US8979831B2 (priority 2008, dated 2015).
“And” between values parts separate entries of the source, which are not always exact repeats. Equal entries are not always repeated. Where two headings read alike, the source gives them in different places.

Columns and labels:
liver parenchyma = system: liver parenchyma; parameters: species or system porcine; settings: for Final thermocouple pH after five minutes: after NaOH pre-injection
porcine liver samples = settings: for Tissue destruction, visual observation: injected alone into porcine liver
[1] = 100 microliters alone, 0:00 min
[2] = 100 microliters alone, 0:15 min
[3] = 100 microliters alone, 0:30 min
[4] = 100 microliters alone, 1:00 min
[5] = 100 microliters alone, 1:15 min

## CC(=O)OC(C)=O [Acetic Anhydride]
Liver parenchyma
  Recorded temperature change: 1.4-9.4 degrees C.
  Final thermocouple pH after five minutes: overwhelmingly basic
Porcine liver samples
  Recorded temperature changes: 0.0-2.94 degrees C.
  Temperature change from baseline: ≥ 1.0 degree C.
  Tissue destruction, visual observation: larger volumes of Acetic Anhydride correlated with greater areas of tissue destruction
Porcine liver samples; [1]
  pH: 6.33 and 7.52 and 7.1 and 6.14 and 6.23
Porcine liver samples; [2]
  pH: 5.2 and 3.75 and 3.34 and 5.7 and 6.03
Porcine liver samples; [3]
  pH: 5.06 and 3.54 and 3.2 and 5.63 and 6.01
Porcine liver samples; 100 microliters alone, 0:45 min
  pH: 4.9 and 3.43 and 3.11 and 5.54 and 5.92
Porcine liver samples; [4]
  pH: 4.81 and 3.36 and 3.05 and 5.42 and 5.91
Porcine liver samples; [5]
  pH: 4.75 and 3.27 and 2.98 and 5.25 and 5.87
Porcine liver samples; 100 microliters alone, 2:00 min
  pH: 4.47 and 3.09 and 2.77 and 4.3 and 5.5
Porcine liver samples; 100 microliters alone, 2:15 min
  pH: 4.4 and 3.03 and 2.75 and 4.23 and 5.3
Porcine liver samples; 100 microliters alone, 2:30 min
  pH: 4.35 and 2.96 and 2.71 and 4.21 and 4.79
Porcine liver samples; 100 microliters alone, 2:45 min
  pH: 4.3 and 2.92 and 2.68 and 4.16 and 4.65
Porcine liver samples; 100 microliters alone, 3:00 min
  pH: 4.25 and 2.9 and 2.65 and 4.12 and 4.57
Porcine liver samples; 100 microliters alone, 3:15 min
  pH: 4.22 and 2.88 and 2.61 and 4.01 and 4.48
Porcine liver samples; 100 microliters alone, 3:30 min
  pH: 4.2 and 2.84 and 2.57 and 4.01 and 4.46
Porcine liver samples; 100 microliters alone, 3:45 min
  pH: 4.16 and 2.81 and 2.54 and 3.97 and 4.4
Porcine liver samples; 100 microliters alone, 4:00 min
  pH: 4.14 and 2.78 and 2.5 and 3.93 and 4.38
Porcine liver samples; 100 microliters alone, 4:15 min
  pH: 4.1 and 2.75 and 2.49 and 3.86 and 4.35
Porcine liver samples; 100 microliters alone, 4:30 min
  pH: 4.09 and 2.74 and 2.46 and 3.84 and 4.32
Porcine liver samples; 100 microliters alone, 4:45 min
  pH: 4.06 and 2.72 and 2.42 and 3.8 and 4.3
Porcine liver samples; 100 microliters alone, 5:00 min
  pH: 4.05 and 2.7 and 2.41 and 3.74 and 4.29
Porcine liver samples; 200 microliters alone, 1:00 min
  pH: 4.91 and 3.36 and 3.21 and 5.41 and 4.80
Porcine liver samples; 200 microliters alone, lower line of Changes (fits 0:00 vs 5:00)
  Changes, pH (lower line): 1.85 and 2.70 and 3.42 and 2.10 and 2.42
Porcine liver samples; 300 microliters alone
  Injections producing greater than one degree Celsius temperature change: three out of five injections

## CC(=O)Cl [Acetyl Chloride]
Liver parenchyma; 100, 200, 300 microliters after 100 or 200 microliters of 1M-15M NaOH, 21 injections
  Temperature changes: 7.9-32 degrees Celsius
Liver parenchyma
  Final thermocouple pH after five minutes: more acidic pH
Liver parenchyma; eleven of the twenty-one runs, with NaOH
  Temperature changes in the first thirty seconds after injection: 20-30 degrees Celsius
Porcine liver samples; 100 microliters alone, different temp probe, 0:00 min
  Temp: 16.4 C. and 17.1 C. and 17.4 C. and 16.6 C. and 17 C.
Porcine liver samples; 100 microliters alone, different temp probe, 0:30 min
  Temp: 22.5 C. and 32 C. and 39 C. and 42.2 C. and 32.3 C.
Porcine liver samples; 100 microliters alone, different temp probe, 0:45 min
  Temp: 21.5 C. and 27.5 C. and 33.5 C. and 33.9 C. and 27.3 C.
Porcine liver samples; 100 microliters alone, different temp probe, 1:00 min
  Temp: 21 C. and 25 C. and 30.6 C. and 30.7 C. and 25.7 C.
Porcine liver samples; 100 microliters alone, different temp probe, 1:15 min
  Temp: 20.2 C. and 24 C. and 28.4 C. and 27.8 C. and 23.9 C.
Porcine liver samples; 100 microliters alone, different temp probe, 1:30 min
  Temp: 19.6 C. and 23.5 C. and 27 C. and 26.2 C. and 23.1 C.
Porcine liver samples; 100 microliters alone, different temp probe, 1:45 min
  Temp: 19 C. and 22.7 C. and 25.6 C. and 25 C. and 22.3 C.
Porcine liver samples; 100 microliters alone, different temp probe, 2:00 min
  Temp: 18.4 C. and 22.1 C. and 24.7 C. and 24.2 C. and 21.6 C.
Porcine liver samples; 100 microliters alone, different temp probe, 2:15 min
  Temp: 18.3 C. and 21.4 C. and 23.9 C. and 23.2 C. and 21.1 C.
Porcine liver samples; 100 microliters alone, different temp probe, 2:30 min
  Temp: 18.1 C. and 21.1 C. and 23.3 C. and 22.6 C. and 20.6 C.
Porcine liver samples; 100 microliters alone, different temp probe, 2:45 min
  Temp: 18 C. and 20.6 C. and 22.6 C. and 22 C. and 20.2 C.
Porcine liver samples; 100 microliters alone, different temp probe, 3:00 min
  Temp: 17.9 C. and 20.3 C. and 22.1 C. and 21.5 C. and 19.9 C.
Porcine liver samples; 100 microliters alone, different temp probe, 3:15 min
  Temp: 17.8 C. and 20.1 C. and 21.7 C. and 21.1 C. and 19.6 C.
Porcine liver samples; 100 microliters alone, different temp probe, 3:45 min
  Temp: 17.6 C. and 19.5 C. and 21 C. and 20.4 C. and 19.1 C.
Porcine liver samples; 100 microliters alone, different temp probe, 4:00 min
  Temp: 17.5 C. and 19.4 C. and 20.7 C. and 20.1 C. and 18.9 C.
Porcine liver samples; 100 microliters alone, different temp probe, 4:15 min
  Temp: 17.5 C. and 19.2 C. and 20.4 C. and 19.9 C. and 18.9 C.
Porcine liver samples; 100 microliters alone, different temp probe, 4:30 min
  Temp: 17.4 C. and 19 C. and 20.2 C. and 19.6 C. and 18.6 C.
Porcine liver samples; 100 microliters alone, different temp probe, 4:45 min
  Temp: 17.3 C. and 18.8 C. and 20 C. and 19.4 C. and 18.4 C.
Porcine liver samples; 100 microliters alone, different temp probe, 5:00 min
  Temp: 17.3 C. and 18.6 C. and 19.8 C. and 19.2 C. and 18.3 C.
Porcine liver samples; [1]
  pH: 6.14 and 6.55 and 6.5 and 5.7
Porcine liver samples; [2]
  pH: 3.1 and 4.67 and 4.62 and 4.82
Porcine liver samples; [3]
  pH: 2.5 and 3.59 and 3.32 and 4.57
Porcine liver samples; [4]
  Temp: 27.4 C. and 24.5 C. and 23.4 C. and 22.8 C.
Porcine liver samples; [5]
  Temp: 26.2 C.
Porcine liver samples
  Tissue destruction, visual observation: more violent and rapid tissue destruction than Acetic Anhydride
